Measured values from patent publication US11344614B2, “Pharmaceutical compositions comprising dengue virus-specific multiple HLA-binding T cell epitopes” (priority 2018, dated 2022).
Peptide text beside a SMILES is read from it.

Test system: CD8+ T cells
Details: healthy seronegative HLA-A2 donor CTLs, peptide pulsed or DENV-2 infected JY cells, FIG. 1; for secretion of granzyme B (cytotoxic activity): supernatant
Excerpt: FIG. 1. […] (A.) HLA-A2 restricted CTLs directed against the peptides (peptides are represented as first 3 residues of the sequence) were generated using peripheral blood from a seronegative donor. PBMCs containing the epitope specific CTLs were harvested, washed, and cultured with the peptide […] cells overnight in an IFN-gamma ELISpot assay. (B). Identical cultures were set up as in (A) but in 96 well round bottom plates. The next day, supernatant was harvested and used to detect cytolytic activity (B) and the cells were analyzed for the marker of degranulation, CD107a (C.)
Epitope specific CD8^+ T cells (CTLs) were generated as previously described. […] Two hours after pulsing, the non-adherent cells were added back into the plates in a cytokine rich medium of RPMI-1640 supplemented with IL-7 (5 ng/mL), GM-CSF (25 ng/mL), IL-4 (50 ng/mL), and keyhole limpet hemocyanin (5 ug/mL KLH; Sigma-Aldrich) and cultured at 37° C. at 5% CO2. T cells in the culture were restimulated two weeks after the initial stimulation with autologous PBMCs depleted of CD4^+ and CD8^+ T cells and pulsed with synthetic peptides (10 ug/mL) and β2-microglobulin (1.5 ug/mL). Restimulated cells were cultured in RPMI-1640 supplemented with IL-15 (5 ng/mL), GM-CSF (12.5 ng/mL) and IL-2 (10 U/mL) for 7 days. Restimulation was performed a total of three times prior to CTL functional assays. Unless otherwise specified, all cytokines and growth factors were purchased from eBiosciences (San Diego, Calif.).

| Structure (SMILES) | degranulation marker CD107a (cytotoxic activity) | secretion of granzyme B (cytotoxic activity) |
| --- | --- | --- |
| CC[C@H](C)[C@H](NC(=O)[C@@H](NC(=O)[C@@H](N)CCSC)[C@@H](C)CC)C(=O)N[C@H](C(=O)N[C@@H](CC(=O)O)C(=O)N[C@@H](CCC(=O)O)C(=O)N[C@@H](C)C(=O)N[C@@H](Cc1c[nH]cn1)C(=O)N[C@@H](Cc1ccccc1)C(=O)O)C(C)C [MII] (H-MIIVDEAHF-OH; N-terminus and C-terminus assumed) | upregulation of the degranulation marker CD107a | secretion |
| CC[C@H](C)[C@H](NC(=O)[C@@H](NC(=O)[C@H](C)NC(=O)[C@H](CC(N)=O)NC(=O)[C@@H]1CCCN1C(=O)[C@@H](NC(=O)[C@H](CS)NC(=O)[C@H](CC(C)C)NC(=O)[C@H](CCSC)NC(=O)[C@H](C)N)[C@@H](C)CC)[C@@H](C)CC)C(=O)O [AML] (H-AMLCIPNAII-OH; N-terminus and C-terminus assumed) | upregulation of the degranulation marker CD107a | secretion |
| CC[C@H](C)[C@H](NC(=O)[C@H](Cc1ccccc1)NC(=O)[C@H](C)N)C(=O)N[C@@H](C)C(=O)N[C@@H](Cc1ccccc1)C(=O)N[C@H](C(=O)N[C@@H](CCCNC(=N)N)C(=O)N[C@@H](Cc1ccccc1)C(=O)O)C(C)C [AFI] (H-AFIAFVRF-OH; N-terminus and C-terminus assumed) | upregulation of the degranulation marker CD107a | secretion |
| CC[C@H](C)[C@H](NC(=O)[C@H](CCSC)NC(=O)[C@@H](NC(=O)[C@H](CC(N)=O)NC(=O)[C@@H]1CCCN1C(=O)[C@@H](NC(=O)[C@H](CS)NC(=O)[C@H](CC(C)C)NC(=O)[C@@H](N)CC(C)C)C(C)C)[C@@H](C)CC)C(=O)O [LLC] (H-LLCVPNIMI-OH; N-terminus and C-terminus assumed) | upregulation of the degranulation marker CD107a | secretion |
